Residues, ends and D or L forms follow the SMILES beside them. *: point of attachment. Cbz = O=C(OCc1ccccc1)*
tested on: EGFP-SCOC (isoform 1 and 3) in HeLa Flp-In T-Rex cells; experiment: Western blot of EGFP-SCOC protein levels with lysosomal or proteasomal inhibitors; format: cell-based; conditions: 7 h in full medium or EBSS, 10 µM MG132, 1 µM epoxymycin, 100 nM Bafilomycin A1
Method: To determine whether SCOC is functioning as an autophagy receptor and degraded by autophagy, we induced expression of EGFP-SCOC (isoform 1 and 3) in HeLa cells followed by 7 h EBSS starvation in the presence and absence of lysosomal or proteasomal inhibitors. […] Thus, both SCOC isoform1 and 3 are not turned over by autophagy, but by the proteasome.
HeLa Flp-In T-Rex cell lines expressing GFP-SCOC (isoform 1), GFP-SCOC (isoform 3), GFP-SCOC F14A/I17A (isoform 3) from a tetracycline inducible CMV promoter were made using the FlpIn T-Rex system (Thermofisher, R71407). pDest-EGFP-Flp-In SCOC iso1, pDest-EGFP-Flp-In SCOC iso3 and pDest-EGFP-Flp-In SCOC iso3 LIRm constructs were established by GATEWAY cloning into the pDEST-EGFP-FlpIn vector.[18] The HeLa-based Flp-In T-Rex host cell line (Invitrogen) contains a single integrated FRT site for insertion of selected constructs. To generate stable cell lines, Flp-In plasmids carrying the selected GFP-tagged constructs were co-transfected with pOG44 encoding the Flp-In recombinase in the ratio of 1:3. Cells were selected by treatment with 200 µg/ml Hygromycin B (Invitrogen, #10687010) and 7,5 µg/ml Blasticidine (Gibco, A1113903). Expression from the CMV-TetO2 promoter was induced by adding 0.5 μg/ml of tetracycline (Sigma, T7660) for 16 to 24 hours. HeLa Flp-In T-Rex cell lines were maintained in Dulbecco’s modified Eagle’s medium supplemented with 10% fetal calf serum, 4 mM l-glutamine, 1% streptomycin-penicillin, 100 µg/ml Hygromycin B, and 3.5 µg/ml Blasticitidine. Cells were treated as indicated with 100 nM Bafilomycin A1, 10 µM MG132, or 1 µM epoxomicin in full medium or Earle’s balanced salt solution (EBSS).
Cells were lysed in ice-cold TNTE buffer (20 mM Tris-HCl, pH 7.4, 150 mM NaCl, 0.5% w/v Triton X-100, 10% v/v glycerol, 5 mM EDTA) containing EDTA-free Complete Protease Inhibitor cocktail (Roche) and PhosSTOP (Roche). Lysates were cleared by centrifugation and resolved on NuPAGE Bis-Tris 4–12% gels (Life Technologies) followed by transfer onto a PVDF membrane (Millipore). […]

Compound	SCOC isoform 1 and 3 protein levels
CO/C1=C\C(C)=C\[C@@H](C)[C@@H](O)[C@@H](C)C/C(C)=C/C=C/[C@H](OC)[C@@H]([C@@H](C)[C@@H](O)[C@H](C)[C@@]2(O)C[C@@H](O)[C@H](C)[C@@H](C(C)C)O2)OC1=O [BafilomycinA1]	did not have any effect
CC(C)C[C@@H](C=O)NC(=O)[C@H](CC(C)C)NC(=O)[C@H](CC(C)C)NC(=O)OCc1ccccc1 [MG132] (Cbz-Leu-Leu-Leu-aldehyde)	increased
CC[C@H](C)[C@H](NC(=O)[C@H]([C@@H](C)CC)N(C)C(C)=O)C(=O)N[C@H](C(=O)N[C@@H](CC(C)C)C(=O)[C@@]1(C)CO1)[C@@H](C)O [epoxymycin]	increased
